Values after ≈ are worked out from the molar mass of the structure shown.
Key:
[1] = tested on: Mycobacterium tuberculosis; test: Antimycobacterial activity against Mycobacterium tuberculosis H37Rv; format: functional; settings: Mycobacterium tuberculosis, H37Rv
[2] = Inhibition of Mycobacterium tuberculosis IMPDH
[3] = tested on: Mycobacterium tuberculosis; test: Antimycobacterial activity against Mycobacterium tuberculosis H37Rv in logarithmic phase; format: functional
[4] = tested on: Mycobacterium tuberculosis; test: Antimycobacterial activity against Mycobacterium tuberculosis H37Rv in hypoxia-induced latent phase; format: functional
[5] = tested on: Mycobacterium tuberculosis; test: Antimycobacterial activity against non-replicating Mycobacterium tuberculosis; format: functional
[6] = tested on: Mycobacterium tuberculosis; test: Growth inhibition of Mycobacterium tuberculosis H37Rv at 100 ug/ml relative to control; format: functional; settings: read-out: GI
[7] = tested on: Mycobacterium tuberculosis; test: Antimycobacterial activity against Mycobacterium tuberculosis H37Rv ATCC 27294 by MABA; format: functional
[8] = Selectivity index, ratio of IC50 for African green monkey Vero cells to MIC for Mycobacterium tuberculosis H37Rv ATCC 27294; format: toxicity; settings: read-out: Selectivity Index
[9] = tested on: Mycobacterium tuberculosis; test: Antimycobacterial activity against Mycobacterium tuberculosis; format: functional
[10] = tested on: Mycobacterium tuberculosis; test: Potency index, ratio of pyrazinamide MIC to compound MIC for Mycobacterium tuberculosis H37Rv; format: functional
[11] = tested on: Mycobacterium tuberculosis; test: Potency index, ratio of streptomycin MIC to compound MIC for Mycobacterium tuberculosis H37Rv; format: functional
[12] = tested on: Mycobacterium tuberculosis; test: Potency index, ratio of isoniazid MIC to compound MIC for Mycobacterium tuberculosis H37Rv; format: functional
[13] = tested on: Mycobacterium tuberculosis; test: Potency index, ratio of ciprofloxacin MIC to compound MIC for Mycobacterium tuberculosis H37Rv; format: functional
HEK293 = test: Cytotoxicity against HEK293 cells after 24 hrs by MTT assay; format: cell-based; settings: Homo sapiens, HEK293, 24 h
[14] = tested on: Mycobacterium tuberculosis; test: Antimycobacterial activity against Mycobacterium tuberculosis H37Rv after 5 days by MABA; format: functional; settings: 120 h
[15] = tested on: Mycobacterium tuberculosis; test: Antimycobacterial activity against replicating Mycobacterium tuberculosis; format: functional

SMILES: CC1(C)CCc2c(c3ccccc3c3nc(-c4c[nH]c5ccccc45)[nH]c23)O1
- MIC [1]: 1.56 to 6.25 µg/mL (≈ 4.25 to 17 µM)

SMILES: O=C(Cn1c(-c2cscn2)nc2ccccc21)Nc1ccc(F)cc1
- IC50 [2]: 3000 to 10000 nM

SMILES: N#Cc1ccc(NC(=O)Cn2c(-c3cscn3)nc3ccccc32)cc1
- IC50 [2]: 3000 to 10000 nM

SMILES: O=C(Cn1c(-c2cscn2)nc2ccccc21)Nc1ccc(Br)cc1
- IC50 [2]: 3000 nM

SMILES: O=C(Cn1c(-c2cscn2)nc2ccccc21)Nc1cccc(Cl)c1
- IC50 [2]: 3000 to 10000 nM

SMILES: COc1ccc(-c2cn(Cc3ccc(Cl)cc3Cl)cc2C(c2ccccc2)n2ccnc2)cc1 (stereo not drawn)
- MIC [1]: 1 µg/mL (≈ 2.05 µM)

SMILES: O=C(Cn1c(-c2cscn2)nc2ccccc21)Nc1ccc(Cl)cc1
- IC50 [2]: 3000 to 10000 nM

SMILES: Clc1ccc(Cn2cc(-c3ccccc3)c(C(c3ccccc3)n3ccnc3)c2)c(Cl)c1 (stereo not drawn)
- MIC [1]: 1 to 16 µg/mL (≈ 2.18 to 34.9 µM)

SMILES: COc1ccc(-c2nc3cc(-c4ccc5[nH]c(-c6ccc(OC)cc6)nc5c4)ccc3[nH]2)cc1
- MIC [3]: 0.5 to 16 µg/mL (≈ 1.12 to 35.8 µM)
- MIC [4]: 0.5 to 16 µg/mL (≈ 1.12 to 35.8 µM)

SMILES: Oc1ccc(-c2nc3ccc(-c4ccc5nc(-c6ccc(O)cc6)[nH]c5c4)cc3[nH]2)cc1
- MIC [3]: 0.5 to 16 µg/mL (≈ 1.19 to 38.2 µM)
- MIC [4]: 0.5 to 16 µg/mL (≈ 1.19 to 38.2 µM)

SMILES: CCc1nc2ccc(C)cc2n1CCCCOc1ccccc1
- MIC [5]: 0.056 to 2.6 µM

SMILES: CCc1nc2ccc(C)cc2n1CCCCNc1ccccc1
- MIC [5]: 0.056 to 2.6 µM

SMILES: COc1cccc(-c2nc3ccc(-c4ccc5nc(-c6cccc(OC)c6)[nH]c5c4)cc3[nH]2)c1
- MIC [3]: 0.5 to 16 µg/mL (≈ 1.12 to 35.8 µM)
- MIC [4]: 0.5 to 16 µg/mL (≈ 1.12 to 35.8 µM)

SMILES: CCc1nc2ccc(C)cc2n1CCCCNc1ccc(OCc2ccccc2)cc1
- MIC [5]: 0.056 to 2.6 µM

SMILES: COc1ccc2c(c1)cc(-c1nc(-c3ccccc3)c(-c3ccccc3)n1-c1ccc(C)cc1)c1nnnn12
- inhibition of growth at 100 µg/mL [6]: 17 to 99%

SMILES: Cc1ccccc1NC(=O)Cn1c(-c2cscn2)nc2ccccc21
- IC50 [2]: 3000 to 10000 nM

SMILES: CCCSc1nnc(-c2ncc([N+](=O)[O-])[nH]2)s1
- MIC [7]: 3.13 to 6.25 µg/mL (≈ 11.5 to 23 µM)
- selectivity ratio [8]: 0.3 to 0.6

SMILES: COc1ccc(-n2c(-c3cc4cc(Cl)ccc4n4nnnc34)nc(-c3ccccc3)c2-c2ccccc2)cc1
- inhibition of growth at 100 µg/mL [6]: 17 to 99%

SMILES: Clc1ccc2c(c1)cc(-c1nc(-c3ccccc3)c(-c3ccccc3)n1-c1ccccc1)c1nnnn12
- inhibition of growth at 100 µg/mL [6]: 17 to 99%

SMILES: CCCS(=O)(=O)c1nnc(-c2ncc([N+](=O)[O-])[nH]2)s1
- MIC [7]: > 6.25 µg/mL
- selectivity ratio [8]: 0.3 to 0.6

SMILES: O=C1/C(=C\c2ccccc2)SC(c2ccc(-n3ccnc3)cc2)N1Nc1ccccc1 (stereo not drawn)
- MIC [9]: 14.3 to 49.7 µM (≈ 6.06 to 21.1 µg/mL)

SMILES: Cc1ccc(Oc2cc3[nH]c(Cn4ccnc4)nc3cc2F)cc1
- MIC [1]: 12.5 to 100 µg/mL (≈ 38.8 to 310 µM)

SMILES: Cn1c(-c2cccc(Cl)c2Cl)nc2cc(-c3nc(-c4ccc(Cl)cc4)no3)ccc21
- Ratio [10]: 2
- Ratio [11]: 4
- Ratio [12]: 4
- Ratio [13]: 2
- IC50 (HEK293): > 500 µg/mL
- MIC [14]: 1.6 to 25 µg/mL (≈ 3.51 to 54.9 µM)

SMILES: O=C1/C(=C\c2ccc(Cl)cc2)SC(c2ccc(-n3ccnc3)cc2)N1Nc1ccccc1 (stereo not drawn)
- MIC [9]: 14.3 to 49.7 µM (≈ 6.55 to 22.8 µg/mL)

SMILES: Cn1c(-c2cccc(Cl)c2F)nc2cc(-c3nc(Cc4cccc(Cl)c4)no3)ccc21
- Ratio [10]: 2
- Ratio [11]: 4
- Ratio [12]: 4
- Ratio [13]: 2
- IC50 (HEK293): > 500 µg/mL
- MIC [14]: 1.6 to 25 µg/mL (≈ 3.53 to 55.2 µM)

SMILES: c1ccc(-c2nc(-c3cc4ccccc4n4nnnc34)n(-c3ccccc3)c2-c2ccccc2)cc1
- inhibition of growth at 100 µg/mL [6]: 17 to 99%

SMILES: Cc1ccc(-n2c(-c3cc4cc(Cl)ccc4n4nnnc34)nc(-c3ccccc3)c2-c2ccccc2)cc1
- MIC99 [1]: 25 µg/mL (≈ 48.7 µM)
- inhibition of growth at 100 µg/mL [6]: 17 to 99%

SMILES: Cc1ccc(-n2c(-c3cc4ccccc4n4nnnc34)nc(-c3ccccc3)c2-c2ccccc2)cc1
- inhibition of growth at 100 µg/mL [6]: 17 to 99%

SMILES: CCc1nc2ccc(C)cc2n1CCCCNc1ccc(OC)cc1
- MIC [5]: 0.056 to 2.6 µM

SMILES: CCc1nc2ccc(C)cc2n1CCCCSc1ccc(Cl)cc1
- MIC [5]: 0.056 to 2.6 µM

SMILES: CCc1nc2ccc(C)cc2n1CCCCNc1cccc(C(F)(F)F)c1
- MIC [5]: 0.056 to 2.6 µM

SMILES: CCCc1cc(=O)oc2c1c(OC)cc1[nH]c(C(=O)OCC)[n+]([O-])c12
- MIC [15]: > 50 µg/mL
- MIC [5]: > 50 µg/mL

SMILES: CC[S+]([O-])c1nnc(-c2ncc([N+](=O)[O-])[nH]2)s1 (stereo not drawn)
- MIC [7]: 1.56 µg/mL (≈ 5.71 µM)
- selectivity ratio [8]: 0.3 to 0.6

SMILES: Cn1c(-c2cccc(Cl)c2Cl)nc2cc(-c3nc(-c4ccccc4Cl)no3)ccc21
- Ratio [10]: 2
- Ratio [11]: 4
- Ratio [12]: 4
- Ratio [13]: 2
- IC50 (HEK293): 355 µg/mL (≈ 780 µM)
- MIC [14]: 1.6 to 25 µg/mL (≈ 3.51 to 54.9 µM)

SMILES: Fc1ccc(-c2cn(Cc3ccc(Cl)cc3Cl)cc2C(c2ccccc2)n2ccnc2)cc1 (stereo not drawn)
- MIC [1]: 1 µg/mL (≈ 2.1 µM)

SMILES: CCSc1nnc(-c2ncc([N+](=O)[O-])[nH]2)s1
- MIC [7]: 3.13 to 6.25 µg/mL (≈ 12.2 to 24.3 µM)
- selectivity ratio [8]: 0.3 to 0.6

SMILES: COc1ccc(-n2c(-c3cc4cc(OC)ccc4n4nnnc34)nc(-c3ccccc3)c2-c2ccccc2)cc1
- inhibition of growth at 100 µg/mL [6]: 17 to 99%

SMILES: Fc1cc2nc(Cn3ccnc3)[nH]c2cc1Oc1ccccc1
- MIC [1]: 12.5 to 100 µg/mL (≈ 40.5 to 324 µM)

SMILES: O=C(Cn1c(-c2cscn2)nc2ccccc21)Nc1ccc(I)cc1
- IC50 [2]: 3000 to 10000 nM

Reference: ChEMBL document CHEMBL4196086, “Recent advances of imidazole-containing derivatives as anti-tubercular agents” (Eur J Med Chem, 2018)
